Tests used:
[1] = tested on: SMMC7721 liver cancer cells; experiment: Cell experiment, cell survival rate; format: cell-based; details: SMMC-7721, 48 h
Experimental: (§1) Cells growing in a log phase are collected, the concentration of the cell suspension is adjusted, 100 μL of cell suspension is added to each well and the cells are plated (edge wells are filled with sterile PBS) at a density of 1×10^3-10^4 cells/well. The cells are incubated for 24 hours at 37° C. under the condition of 5% CO2, a nanocarbon-iron solution having a concentration gradient (nanocarbon content: 125, 62.5, 15.63 and 3.91 μg/mL; and ferric ion content: 13.65, 6.83, 1.71 and 0.43 μg/mL) is added, and three sub-wells are set. Then the cells are incubated for 48 hours at 37° C. under the condition of 5% CO2. 10 μL of CCK8 solution is added to each well and then the cells are continuously incubated for 2 hours. The absorbance of each well is measured at OD=450 nm with the microplate reader. In addition, a negative control group, nanocarbon control groups having the same concentration and iron preparation control groups having the same concentration are set.
as §1, with “and 1” for “100”, “of a 6-well plate” for “and the cells are plated (edge wells are filled with sterile PBS)”, “3×10^4” for “1×10^3-10^4”, “1.71,” for “1.71 and”, “The” for “10 μL of CCK8 solution is added to each well and then the”, “trypsinized and counted.” for “continuously incubated for 2 hours. The absorbance of each well is measured at OD=450 nm with the microplate reader.”

[2] = tested on: Hela cervical cancer cells; experiment: Cell experiment, cell survival rate; format: cell-based; details: 48 h
Experimental: as §1
as §1, with “and 1” for “100”, “of a 6-well plate” for “and the cells are plated (edge wells are filled with sterile PBS)”, “3×10^4” for “1×10^3-10^4”, “1.71,” for “1.71 and”, “The” for “10 μL of CCK8 solution is added to each well and then the”, “trypsinized and counted.” for “continuously incubated for 2 hours. The absorbance of each well is measured at OD=450 nm with the microplate reader.”

[3] = tested on: MDA-MB-231 breast cancer cells; experiment: Cell experiment, cell survival rate; format: cell-based; details: 48 h
Experimental: as §1
as §1, with “and 1” for “100”, “of a 6-well plate” for “and the cells are plated (edge wells are filled with sterile PBS)”, “3×10^4” for “1×10^3-10^4”, “1.71,” for “1.71 and”, “The” for “10 μL of CCK8 solution is added to each well and then the”, “trypsinized and counted.” for “continuously incubated for 2 hours. The absorbance of each well is measured at OD=450 nm with the microplate reader.”

A549 lung cancer cells = experiment: Cell experiment, cell survival rate; format: cell-based; details: 48 h
Experimental: as §1
as §1, with “and 1” for “100”, “of a 6-well plate” for “and the cells are plated (edge wells are filled with sterile PBS)”, “3×10^4” for “1×10^3-10^4”, “1.71,” for “1.71 and”, “The” for “10 μL of CCK8 solution is added to each well and then the”, “trypsinized and counted.” for “continuously incubated for 2 hours. The absorbance of each well is measured at OD=450 nm with the microplate reader.”

[4] = tested on: subcutaneous transplantation tumors of 9 types of cancer cells; experiment: Tumor growth inhibition experiments, subcutaneous transplantation tumors; format: in vivo, mice; details: FIGS. 4-39
Experimental: Cells growing in a log phase are collected, the concentration of the cell suspension is adjusted to 3×10^7 cells/mL, and the cell suspension is inoculated subcutaneously into the right upper extremities of nude mice at the inoculation dosage of 0.1 mL (about 3×10^6 cells) per mouse. When the average tumor volume of the inoculated mice reaches 100 mm^3, the tumor-bearing mice are randomly divided into the following groups (8 nude mice per group): a negative control group (0.9% sodium chloride injection), a nanocarbon control group, an iron preparation control group, a nanocarbon-iron suspension experimental group, and a cis-platinum control group (intraperitoneal injection at the dosage of 5 mg/kg). The above various drugs are injected into the tumors. The tumor volume changes are recorded, and the formula for calculating the volume is Volume=(length×the square of width)/2.
Milky white and thick ascites is extracted from the H22 tumor-bearing mice, the concentration of the cell suspension is adjusted to be 3×10^7 cells/mL, 0.1 mL of cell suspension (about 3×10^6 cells) is inoculated subcutaneously into the right upper extremity of each of Kunming mice. When the average tumor volume of the inoculated mice reaches 100 mm^3, the tumor-bearing mice are randomly divided into the following groups (8 mice per group): a negative control group (0.9% sodium chloride injection), a nanocarbon control group, an iron preparation control group, a nanocarbon-iron suspension experimental group, and a cis-platinum control group (intraperitoneal injection at the dosage of 5 mg/kg). The above various drugs are injected into the tumors. The tumor volume changes are recorded, and the formula for calculating the volume is Volume=(length×the square of width)/2.

[5] = tested on: A549 metastatic lymph nodes; experiment: Lymph node metastasis inhibition experiment; format: in vivo, nude mouse; details: popliteal lymph nodes
Experimental: (§2) Cells growing in a log phase are collected, the concentration of the cell suspension is adjusted to 3×10^7 cells/mL, the cell suspension is inoculated subcutaneously into the left hind foot pads of each nude mouse at the inoculation volume of 0.05 mL (about 1.5×10^6 cells) and thus a lymph node metastasis mouse model is obtained. The mice are treated when the diameter of the tumor reaches 6-8 mm and there is no ulcer and necrosis. The mice are randomly divided into four groups (10 mice per group): a negative control group (0.9% sodium chloride injection), a nanocarbon control group, an iron preparation control group and a nanocarbon-iron suspension experimental group. 10 days after inoculation, the mice are killed, and popliteal lymph nodes are collected, weighed and fixed for pathological examination.

[6] = tested on: TPC-1 metastatic lymph nodes; experiment: Lymph node metastasis inhibition experiment; format: in vivo, nude mouse; details: popliteal lymph nodes
Experimental: as §2

[7] = tested on: SMMC-7721 metastatic lymph nodes; experiment: Lymph node metastasis inhibition experiment; format: in vivo, nude mouse; details: popliteal lymph nodes
Experimental: as §2

[8] = tested on: Hela metastatic lymph nodes; experiment: Lymph node metastasis inhibition experiment; format: in vivo, nude mouse; details: popliteal lymph nodes
Experimental: as §2

[9] = tested on: MDA-MB-231 metastatic lymph nodes; experiment: Lymph node metastasis inhibition experiment; format: in vivo, nude mouse; details: popliteal lymph nodes
Experimental: as §2

[10] = tested on: SGC-7901 metastatic lymph nodes; experiment: Lymph node metastasis inhibition experiment; format: in vivo, nude mouse; details: popliteal lymph nodes
Experimental: as §2

[11] = tested on: HCT116 metastatic lymph nodes; experiment: Lymph node metastasis inhibition experiment; format: in vivo, nude mouse; details: popliteal lymph nodes
Experimental: as §2

[12] = tested on: SKOV3 metastatic lymph nodes; experiment: Lymph node metastasis inhibition experiment; format: in vivo, nude mouse; details: popliteal lymph nodes
Experimental: as §2

[13] = tested on: lymph node metastasis of 9 types of tumor cells; experiment: Lymph node metastasis inhibition experiment, summary; format: in vivo, mice
Experimental: as §2
Milky white and thick ascites is extracted from the H22 tumor-bearing mice, the concentration is adjusted to be 3×10^7 cells/mL, 0.05 mL of cell suspension (about 1.5×10^6 cells) is inoculated subcutaneously into the left hind foot pads of each Kunming mouse, and thus a lymph node metastasis mouse model is obtained. The mice are treated when the diameter of the tumor reaches 6-8 mm and there is no ulcer and necrosis. The mice are randomly divided into four groups (10 mice per group): a negative control group (0.9% sodium chloride injection), a nanocarbon control group, an iron preparation control group and a nanocarbon-iron suspension experimental group. 10 days after inoculation, the mice are killed, and popliteal lymph nodes are collected, weighed and fixed for pathological examination.

[14] = iron preparation alone 6.83 μg/mL
[15] = iron preparation alone 13.65 μg/mL
[16] = iron preparation alone 0.43 μg/mL
[17] = iron preparation alone 1.71 μg/mL

ammonium ferric citrate
Cell Survival Rate [1, 14]: 94.19%
Cell Survival Rate [1, 15]: 100%
Cell Survival Rate [2, 16]: 100%
Cell Survival Rate [2, 17]: 99.34%
Cell Survival Rate [2, 14]: 97.46%
Cell Survival Rate [2, 15]: 93.67%
Cell Survival Rate [3, 16]: 100%
Cell Survival Rate [3, 17]: 100%
Cell Survival Rate [3, 14]: 97.28%
Cell Survival Rate [3, 15]: 95.12%
Cell Survival Rate (A549 lung cancer cells; [16]): 97.21%
Cell Survival Rate (A549 lung cancer cells; [17]): 99.64%
Cell Survival Rate (A549 lung cancer cells; [14]): 95.76%
Cell Survival Rate (A549 lung cancer cells; [15]): 94.67%
inhibition effect on growth of 9 types of tumors [4]: do not have an inhibition effect
Weight of Lymph Node [5]: 45.67 ± 10.68 mg
Weight of Lymph Node [6]: 41.97 ± 20.12 mg
Weight of Lymph Node [7]: 56.98 ± 17.59 mg
Weight of Lymph Node [8]: 30.94 ± 10.68 mg
Weight of Lymph Node [9]: 46.97 ± 10.36 mg
Weight of Lymph Node [10]: 43.69 ± 8.97 mg
Weight of Lymph Node [11]: 49.57 ± 20.67 mg
Weight of Lymph Node [12]: 32.98 ± 6.42 mg
inhibition effect on the metastatic lymph nodes [13]: do not have an inhibition effect
